Counter-ions that a name gives are not always drawn. Like-named read-outs stand apart in the source and are kept apart here.
Experiments:
Type in all cases: biochemical
[1] = biological target: T1, human CSNK1A1 (Homo sapiens (Human), UniProt P48729); experiment: CSNK1A1 Assay 2 (ADP-Glo, 1 μM ATP); conditions: substrate biotin-Ahx-KRRRAL-pS-VASLPGL, read-out: CSNK1A1 Assay 2 IC50 [mol/l] (median)
Procedure, shortened: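 Full-length human CSNK1A1 as an N-terminal GST fusion (baculovirus/insect cells) with biotinylated peptide substrate biotin-Ahx-KRRRAL-pS-VASLPGL and 1 μM ATP, in HEPES pH 7.5 buffer. Compounds were pre-incubated with enzyme (~0.0375 ng/μL) for 15 min at 22 °C. Generated ADP was read by ADP-Glo luminescence as the activity measure.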

[2] = biological target: human CSNK1D (Homo sapiens (Human), UniProt P48730); experiment: CSNK1D Assay (ADP-Glo, 1 μM ATP); conditions: read-out: CSNK1D IC50 [mol/l] (median)
Procedure, shortened: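 Activity is read as ADP produced, by ADP-Glo luminescence after 1 h steps at 22 °C. The reaction uses 1 μM ATP, a biotinylated peptide and insect-cell-expressed GST–CSNK1D (about 0.5 ng/μL) in pH 7.5 HEPES buffer, with 15 min compound–enzyme preincubation.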

[3] = biological target: T1, human CSNK1A1; experiment: CSNK1A1 High ATP Assay (ADP-Glo, 1 mM ATP); conditions: read-out: CSNK1A1 high ATP assay IC50 [mol/l] (median)
Procedure, shortened: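 Kinase activity taken as ADP generated, quantified by ADP-Glo luminescence after 1 h ATP depletion and 1 h detection at 22 °C. Enzyme is GST–full-length human CSNK1A1 (insect cell-expressed), pre-bound to compound for 15 min, with phosphopeptide substrate and 1 mM ATP.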

[4] = biological target: wild-type Epidermal Growth Factor Receptor (EGFR) (Homo sapiens (Human), UniProt P00533); experiment: WT-EGFR Kinase Assay (TR-FRET, 2 mM ATP)
[5] = read-out: EGFR Wildtyp- 2 mM ATP IC50 [mol/l] (median)
[6] = EGFR Wildtyp- 2 mM ATP IC50 [mol/l] (median)

Sequence of wild-type Epidermal Growth Factor Receptor (EGFR) (P00533 669-1210): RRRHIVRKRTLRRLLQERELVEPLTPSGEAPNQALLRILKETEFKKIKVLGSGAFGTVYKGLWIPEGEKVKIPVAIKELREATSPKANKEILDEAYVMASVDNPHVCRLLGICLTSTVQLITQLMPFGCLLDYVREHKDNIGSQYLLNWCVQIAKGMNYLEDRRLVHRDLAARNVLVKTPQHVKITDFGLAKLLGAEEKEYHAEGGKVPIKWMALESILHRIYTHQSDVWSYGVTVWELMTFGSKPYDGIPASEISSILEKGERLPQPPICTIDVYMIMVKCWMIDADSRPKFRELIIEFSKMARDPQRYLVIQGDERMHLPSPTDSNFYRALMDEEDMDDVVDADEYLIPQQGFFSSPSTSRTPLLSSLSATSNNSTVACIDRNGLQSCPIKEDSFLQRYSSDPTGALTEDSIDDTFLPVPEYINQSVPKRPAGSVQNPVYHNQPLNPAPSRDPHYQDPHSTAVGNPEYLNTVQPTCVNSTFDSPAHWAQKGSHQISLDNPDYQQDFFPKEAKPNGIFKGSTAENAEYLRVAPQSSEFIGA
T1 sequence (P48729 whole entry, the tested form may be a part): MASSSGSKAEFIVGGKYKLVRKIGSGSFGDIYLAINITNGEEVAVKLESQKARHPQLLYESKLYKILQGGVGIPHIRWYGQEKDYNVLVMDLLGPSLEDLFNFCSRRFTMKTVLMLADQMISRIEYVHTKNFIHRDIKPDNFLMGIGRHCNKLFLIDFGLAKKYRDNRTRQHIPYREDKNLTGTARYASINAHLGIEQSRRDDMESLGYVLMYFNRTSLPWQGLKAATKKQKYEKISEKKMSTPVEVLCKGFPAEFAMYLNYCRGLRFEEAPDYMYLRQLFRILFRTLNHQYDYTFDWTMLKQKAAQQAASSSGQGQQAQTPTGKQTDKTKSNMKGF
Sequence of human CSNK1D (P48730 whole entry): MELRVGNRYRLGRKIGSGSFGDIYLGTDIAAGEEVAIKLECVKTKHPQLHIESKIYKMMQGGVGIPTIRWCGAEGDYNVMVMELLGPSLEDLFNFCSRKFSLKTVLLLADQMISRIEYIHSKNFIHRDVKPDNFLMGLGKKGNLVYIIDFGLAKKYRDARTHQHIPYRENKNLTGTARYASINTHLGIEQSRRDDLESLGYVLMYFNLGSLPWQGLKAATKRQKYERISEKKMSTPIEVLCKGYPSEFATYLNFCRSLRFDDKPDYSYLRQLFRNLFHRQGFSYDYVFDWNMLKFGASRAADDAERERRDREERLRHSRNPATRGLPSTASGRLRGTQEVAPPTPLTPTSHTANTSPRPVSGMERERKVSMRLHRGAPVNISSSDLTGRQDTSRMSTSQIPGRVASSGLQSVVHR

SMILES	IC50 [1] [nM]	IC50 [2] [nM]	IC50 [3] [nM]	IC50 [4, 5] [nM]	IC50 [4, 6] [nM]
CC(C(=O)Nc1cc(-c2[nH]c3c(c2Nc2ccccc2)C(=O)N(C)CC3)ccn1)c1ccc(Cl)cc1 (single isomer, unassigned; (+)) [Example 81, (+)-N-[4-(3-anilino-5-methyl-4-oxo-4,5,6,7-tetrahydro-1H-pyrrolo[3,2-c]pyridin-2-yl)pyridin-2-yl]-2-(4-chlorophenyl)propanamide]	4.33	8.47	71.4	> 20000	
CC1Cc2[nH]c(-c3ccnc(NC(=O)C(CC(F)F)c4ccc(F)cc4)c3)c(Nc3ccccc3F)c2C(=O)N1C (single isomer, unassigned; (-)) [Example 106, (−)-(2RS)-4,4-difluoro-N-{4-[(6R*)-3-(2-fluoroanilino)-5,6-dimethyl-4-oxo-4,5,6,7-tetrahydro-1H-pyrrolo[3,2-c]pyridin-2-yl]pyridin-2-yl}-2-(4-fluorophenyl)butanamide]	17.8	22.3	56.2	> 20000	
CC1Cc2[nH]c(-c3ccnc(NC(=O)C(CC(F)F)c4ccc(F)cc4)c3)c(Nc3ccccc3F)c2C(=O)N1C (single isomer, unassigned; (-)) [Example 104, (−)-4,4-difluoro-N-{4-[3-(2-fluoroanilino)-5,6-dimethyl-4-oxo-4,5,6,7-tetrahydro-1H-pyrrolo[3,2-c]pyridin-2-yl]pyridin-2-yl}-2-(4-fluorophenyl)butanamide]	67.9	60.5	4490	> 20000	
CCN1CCc2[nH]c(-c3ccnc(NC(=O)Cc4ccc(F)cc4)c3)c(Nc3ccccc3)c2C1=O [Example 28, N-[4-(3-anilino-5-ethyl-4-oxo-4,5,6,7-tetrahydro-1H-pyrrolo[3,2-c]pyridin-2-yl)pyridin-2-yl]-2-(4-fluorophenyl)acetamide]	11.4	71.2	1980	> 20000	
CC(C(=O)Nc1cc(-c2[nH]c3c(c2Nc2ccccc2)C(=O)N(C)C(C)C3)ccn1)c1ccc(F)cc1 (single isomer, unassigned; (+)) [Example 92, (+)-N-{4-[3-anilino-5,6-dimethyl-4-oxo-4,5,6,7-tetrahydro-1H-pyrrolo[3,2-c]pyridin-2-yl]pyridin-2-yl}-2-(4-fluorophenyl)propanamide]	4.66	10.7	230		> 20000
Cc1ccccc1Nc1c(-c2ccnc(NC(=O)C(C)c3ccc(F)cc3)c2)[nH]c2c1C(=O)NC(C)(C)C2 (single isomer, unassigned; enantiomer 1) [Example 133, (−)-N-{4-[6,6-dimethyl-3-(2-methylanilino)-4-oxo-4,5,6,7-tetrahydro-1H-pyrrolo[3,2-c]pyridin-2-yl]pyridin-2-yl}-2-(4-fluorophenyl)propanamide (Enantiomer 1)]	197	280	> 5710		405
CC(C(=O)Nc1cc(-c2[nH]c3c(c2Nc2ccccc2)C(=O)N(C)CC3)ccn1)c1ccncc1 (racemic) [Example 72, N-[4-(3-anilino-5-methyl-4-oxo-4,5,6,7-tetrahydro-1H-pyrrolo[3,2-c]pyridin-2-yl)pyridin-2-yl]-2-(pyridin-4-yl)propanamide]	3.97	6.09	66.4		7590
CC1(C)Cc2[nH]c(-c3ccnc(NC(=O)C(CC(F)F)c4ccc(F)cc4)c3)c(Nc3ccccc3)c2C(=O)N1 (single isomer, unassigned) [Example 50, N-[4-(3-anilino-6,6-dimethyl-4-oxo-4,5,6,7-tetrahydro-1H-pyrrolo[3,2-c]pyridin-2-yl)pyridin-2-yl]-4,4-difluoro-2-(4-fluorophenyl)butanamide]	51	68.2	2460	> 20000	
CCC(C(=O)Nc1cc(-c2[nH]c3c(c2Nc2ccccc2)C(=O)N(C)CC3)ccn1)c1ccc(F)cc1 (single isomer, unassigned; (+)) [Example 77, (+)-N-[4-(3-anilino-5-methyl-4-oxo-4,5,6,7-tetrahydro-1H-pyrrolo[3,2-c]pyridin-2-yl)pyridin-2-yl]-2-(4-fluorophenyl)butanamide]	2.12	4.43	86.7	> 20000	
CC1(C)Cc2[nH]c(-c3ccnc(NC(=O)C(CN)c4ccc(F)cc4)c3)c(Nc3ccccc3)c2C(=O)N1 (single isomer, unassigned; enantiomer 2) [Example 141, 3-amino-N-[4-(3-anilino-6,6-dimethyl-4-oxo-4,5,6,7-tetrahydro-1H-pyrrolo[3,2-c]pyridin-2-yl)pyridin-2-yl]-2-(4-fluorophenyl)propanamide (Enantiomer 2)]	57.8	127	599	> 20000	
O=C(Cc1ccc(F)cc1)Nc1cc(-c2[nH]c3c(c2Nc2ccccc2Cl)C(=O)NCC3)ccn1 [Example 13, N-{4-[3-(2-chloroanilino)-4-oxo-4,5,6,7-tetrahydro-1H-pyrrolo[3,2-c]pyridin-2-yl]pyridin-2-yl}-2-(4-fluorophenyl)acetamide]	1.9	7.06	37	1050	
CN1CCc2[nH]c(-c3ccnc(NC(=O)Cc4ccncc4)c3)c(Nc3ccccc3)c2C1=O [Example 64, N-[4-(3-anilino-5-methyl-4-oxo-4,5,6,7-tetrahydro-1H-pyrrolo[3,2-c]pyridin-2-yl)pyridin-2-yl]-2-(pyridin-4-yl)acetamide]	2.65	5.51	31	1200	
CN(C)CCCC(C(=O)Nc1cc(-c2[nH]c3c(c2Nc2ccccc2)C(=O)N(C)CC3)ccn1)c1ccccc1 (racemic) [Example 58, N-[4-(3-anilino-5-methyl-4-oxo-4,5,6,7-tetrahydro-1H-pyrrolo[3,2-c]pyridin-2-yl)pyridin-2-yl]-5-(dimethylamino)-2-phenylpentanamide]	12.4	40.6	1200		> 20000
COCCN1CCc2[nH]c(-c3ccnc(NC(=O)Cc4ccc(F)cc4)c3)c(Nc3ccccc3)c2C1=O [Example 53, N-{4-[3-anilino-5-(2-methoxyethyl)-4-oxo-4,5,6,7-tetrahydro-1H-pyrrolo[3,2-c]pyridin-2-yl]pyridin-2-yl}-2-(4-fluorophenyl)acetamide]	9.68	15	907	6030	
CC1(C)Cc2[nH]c(-c3ccnc(NC(=O)C(CC(F)F)c4ccc(F)cc4)c3)c(Nc3cccc(F)c3Cl)c2C(=O)N1 (single isomer, unassigned; (-)) [Example 110, (−)-N-{4-[3-(2-chloro-3-fluoroanilino)-6,6-dimethyl-4-oxo-4,5,6,7-tetrahydro-1H-pyrrolo[3,2-c]pyridin-2-yl]pyridin-2-yl}-4,4-difluoro-2-(4-fluorophenyl)butanamide]	262	249	> 20000		4130
CC(C(=O)Nc1cc(-c2[nH]c3c(c2Nc2ccccc2)C(=O)N(C)C2(CCC2)C3)ccn1)c1ccc(F)cc1 (single isomer, unassigned; enantiomer 2) [Example 159, (+)-N-[4-(3′-anilino-5′-methyl-4′-oxo-1′,4′,5′,7′-tetrahydrospiro[cyclobutane-1,6′-pyrrolo[3,2-c]pyridin]-2′-yl)pyridin-2-yl]-2-(4-fluorophenyl)propanamide (Enantiomer 2)]	90.3	90.7	217	> 20000	
CN1CCc2[nH]c(-c3ccnc(NC(=O)Cc4ccc(F)cc4)c3)c(Nc3cccc(F)c3F)c2C1=O [Example 154, N-{4-[3-(2,3-difluoroanilino)-5-methyl-4-oxo-4,5,6,7-tetrahydro-1H-pyrrolo[3,2-c]pyridin-2-yl]pyridin-2-yl}-2-(4-fluorophenyl)acetamide formamide salt]	3.33	4.45	119	> 20000	
CC(C(=O)Nc1cc(-c2[nH]c3c(c2Nc2ccccc2)C(=O)N(C)C(C)C3)ccn1)c1ccc(F)cc1 (single isomer, unassigned; (-)) [Example 93, (−)-N-{4-[3-anilino-5,6-dimethyl-4-oxo-4,5,6,7-tetrahydro-1H-pyrrolo[3,2-c]pyridin-2-yl]pyridin-2-yl}-2-(4-fluorophenyl)propanamide]	47.2	47.3	3180		> 20000
COC(=O)c1ccc(CC(=O)Nc2cc(-c3[nH]c4c(c3Nc3ccccc3)C(=O)N(C)CC4)ccn2)cc1 [Example 117, methyl 4-(2-{[4-(3-anilino-5-methyl-4-oxo-4,5,6,7-tetrahydro-1H-pyrrolo[3,2-c]pyridin-2-yl)pyridin-2-yl]amino}-2-oxoethyl)benzoate]	1.46	2.99	96.2	1270	

Source: patent publication US12227501B2, “3-amino-2-[2-(acylamino)pyridin-4-yl]-1,5,6,7-tetrahydro-4h-pyrrolo[3,2-c]pyridin-4-one as CSNK1 inhibitors” (Bayer Aktiengesellschaft, priority 2019, dated 2025)
